Series [1] is described as follows: Solubility of synthetic polypeptides (precipitate in assay). The class given is physicochemical. The following applies: under Competitive ELISA conditions.
The target in series [2] is T1, IL-23R pathway in STAT3-Luc reporter DB cells (Homo sapiens, UniProt Q5VWK5). In words: Cell-based STAT3-Luc reporter DB cell assay (DB-Luc), inhibition of IL-23. The following applies: cyclic vs linear peptides. As to the method: The Cignal STAT3 reporter (SA Biosciences, CCS-9028L), designed to measure the transcriptional activity of STAT3 homodimers, was transiently transfected into the DB cells. The stably transfected STAT3-Luc reporter clone was selected using 200 ng/ml of Hygromycin B.
The stably transfected STAT3-Luc reporter DB cells (0.5×10^6) were cultured in 100 μl of RPMI+10% FBS. IL-23 was added to the cells and incubated at 37° C. for 4 hours. Luciferase activity was measured using Dual-Glo luciferase assay system (Promega).
The isolated cyclic polypeptide no. 23.15-Fc fusion protein and cyclic polypeptide no. 23.19 were used in a cell-based assay to measure the IC50 values. The stably transfected STAT3-Luc reporter DB cells (0.5×10^6) were cultured in 100 μl of RPMI+10% FBS. The cells were pre-incubated with different concentration of isolated cyclic polypeptide no. 23.15-Fc fusion protein or polypeptide no. 23.19 for 30 minutes at 37° C. 50 ng/ml of IL-23 was added to the cells and incubated at 37° C. for an additional 4 hours. Luciferase activity was measured using Dual-Glo luciferase assay system (Promega). The IC50 values of isolated cyclic polypeptide no. 23.15-Fc fusion protein and cyclic polypeptide no. 23.19 are 2.5 μM and 2.5 μM respectively.
The isolated peptide no. 7 (SEQ ID NO: 156) and peptide no. 23.19 (SEQ ID NO: 130) (it is a cyclic version of the polypeptide no. 23.15) were used in a cell based assay to compare their inhibitory activity. The stably transfected STAT3-Luc reporter DB cells (0.5×10^6) were cultured in 100 μl of RPMI+10% FBS. The cells were pre-incubated with two different concentrations (10 μM and 2 μM) of isolated peptides for 30 minutes at 37° C. 50 ng/ml of IL-23 was added to the cells and incubated at 37° C. for an additional 4 hours. Luciferase activity was measured using Dual-Glo luciferase assay system (Promega). The inhibitory activity of isolated peptide no. 7 (SEQ ID NO: 156) is better than that of peptide no. 23.19 (SEQ ID NO: 130) (a cyclic version of polypeptide no. 23.15 (SEQ ID NO: 126) (See, FIG. 62).
DB cells express IL-23R on the cell surface. In addition, IL-23 stimulated the DB cells through the activation of STAT3 by phosphorylation (p-STAT3) (Example 7 (Figures. 14 and 15)). Based on these observations, DB cells were used to develop a cell-based assay to measure the inhibitory activity of peptide and peptide-Fc fusion protein in the IL-23R pathway. […]
The Cignal STAT3 reporter (SA Biosciences, CCS-9028L), which is designed to measure the transcriptional activity of STAT3 homodimers, was transiently transfected into the DB cells. The stably transfected STAT3-Luc reporter clone was selected using 200 ng/ml of Hygromycin B. The activity of IL-23R pathway can be measured by the transcriptional activity of STAT3 homodimers. […]

Series [3] addresses T2, Recombinant human IL-23R-Fc (Homo sapiens, UniProt Q5VWK5).
T2 construct: has the protein portion between the 24 amino acid residue to 353 amino acid residue; purchased R&D Systems 1400-IR-050
T2 sequence (Q5VWK5 24-353): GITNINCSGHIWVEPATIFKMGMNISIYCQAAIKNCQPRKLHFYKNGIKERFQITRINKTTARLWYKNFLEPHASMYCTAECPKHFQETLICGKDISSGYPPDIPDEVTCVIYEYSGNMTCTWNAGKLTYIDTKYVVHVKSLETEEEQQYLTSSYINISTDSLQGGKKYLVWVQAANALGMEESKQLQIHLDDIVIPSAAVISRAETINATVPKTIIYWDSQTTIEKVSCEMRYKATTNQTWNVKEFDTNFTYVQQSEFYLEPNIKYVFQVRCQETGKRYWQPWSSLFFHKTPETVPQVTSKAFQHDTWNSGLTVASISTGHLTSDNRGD
In words: Competitive ELISA, IL-23 binding to IL-23R. The note with it: for inhibition of IL-23 binding to its receptor by modified polypeptides, Competitive ELISA: procedure of Example 6, compared with parent polypeptide; for IC50: human IL-23 / IL-23R-Fc, read-out: IC50, Competitive ELISA. How it is done:
The novel polypeptides were tested for their ability to inhibit IL-23 using a Competitive ELISA. In such an assay, IL-23R/Fc fusion protein was immobilized on a solid support. In this instance, the solid support was a 96-well plate, but the support may be any support that is typically used for an ELISA. The novel polypeptide and IL-23 were allowed to compete for binding to the immobilized IL-23R/Fc fusion protein. IL-23 that bound to IL-23R-Fc was detected using biotinylated anti-p40 antibody. The bound anti-p40 antibody was detected using streptavidin-horseradish peroxidase (HRP) and a tetramethylbenzidine (TMB) substrate was added to measure peroxidase activity. The color was measured at optical density (OD) 450nm. The color intensity was directly proportional to the amount of the bound IL-23 protein. […] (See, FIG. 16.)
(§1) FIG. 12 is a schematic depiction of the Competitive ELISA. Recombinant human IL-23R-Fc (2 μg/ml) was coated onto microtiter plates as a capture reagent. IL-23 and polypeptides were added to compete for binding to the immobilized IL-23R-Fc. IL-23 that bound to IL-23R-Fc was detected using biotinylated anti-p40 antibody (1:250). The bound anti-p40 antibody was detected using streptavidin-horseradish peroxidase (HRP) (1:500) and 100 μl/well of a tetramethylbenzidine (TMB) substrate was added to measure peroxidase activity. The color was measured at optical density (OD) 450nm. (See, FIG. 12). The color intensity was directly proportional to the amount of the bound IL-23 protein.
as §1, with “Recombinant” for “FIG. 12 is a schematic depiction of the Competitive ELISA. Recombinant”, “IL-23R-Fc. 50 μg human IL-23 (Cat. No. HZ-1048) (Humanzyme, Chicago, Ill.) in the presence or absence of 100 μM peptides was added to the well and incubated at 4° C. overnight.” for “IL-23R-Fc.”, “450nm.” for “450nm. (See, FIG. 12).”

In series [4] the target is T1, IL-23R pathway in STAT3-Luc reporter DB cells. In words: STAT3-Luc reporter DB cells stimulated with IL-23 cytokines. The series is classed as cell-based. As to the method: In Example 29 (above), we detailed the development of stably transfected STAT3-Luc reporter clone. […] The stably transfected STAT3-Luc reporter DB cells (0.5×10^6 cells) were cultured in 100 μl of RPMI+10% FBS. Recombinant IL-23 (Humanzyme) or isolated IL-23 (WT or W5) was added to the cells and incubated at 37° C. for 4 hours. Luciferase activity was measured using Dual-Glo luciferase assay system (Promega).
The reporter luciferase activity increased by approximately 10 folds. Isolated WT IL-23 cytokine at different concentrations (50,000, 5,000, 500 and 50 ng/ml) was added to stimulate these stable cells. […] At the concentration of 50 ng/ml, the isolated WT IL-23 cytokine stimulates the IL-23R pathway as good as the recombinant IL-23 cytokine from Humazyme.

Series [5] has as its system IL-23R deletion proteins. Put plainly: Immunoprecipitation with FLAG-tagged IL-23R deletion proteins. The series is classed as binding. The note with it: 200 ng, anti-FLAG M2 immunoprecipitation, Western blot. How it is done: (§2) In this study, we examined which regions of IL-23R proteins were required for the binding to IL-23 and polypeptide no. 23.15-fc fusion protein. To do so, we generated a series of IL-23R deletion proteins as illustrated in the FIG. 48.
(§3) Culture media from 293T cells transfected with different FLAG-tagged IL-23R deletion constructs were incubated with 200 ng of either IL-23 or polypeptide no. 23.15-fc fusion protein, then immunoprecipitated with anti-FLAG M2 affinity gel. The immunoprecipitate was subjected to Western blotting and polypeptide no. 23.15-Fc fusion protein or IL-23 was visualized with either anti-mouse IgG or anti-hIL-12/23p40 respectively. IL-23 or polypeptide no. […] 23.15-fc fusion protein (FIG. 48).

Series [6] concerns the target T3, IL-23R deletion proteins (Homo sapiens, UniProt Q5VWK5).
T3 construct: made in house; host or cells: 293T cells (culture media)
T3 sequence (Q5VWK5 24-200): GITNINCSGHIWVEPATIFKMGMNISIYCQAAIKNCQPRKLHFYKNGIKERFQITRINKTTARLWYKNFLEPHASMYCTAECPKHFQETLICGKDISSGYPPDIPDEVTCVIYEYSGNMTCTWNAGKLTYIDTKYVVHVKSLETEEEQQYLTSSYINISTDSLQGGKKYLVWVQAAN
Described as above. The note with it: 200 ng, anti-FLAG M2 immunoprecipitation, Western blot. The series is classed as binding. How it is done:
as §2, §3
For orientation: Immunoblotting shows a protein as a band on a membrane.

Entries after “also recorded” stand apart in the source; their conditions may differ. Bridge positions count the residues as written; N and C are the ends. Ends that are not written are not given here.

This note sets out measurements from patent US9605027B2, “Polypeptides that bound to IL-23 receptor and inhibit binding of IL-23 and cell signaling thereof” (Medical Diagnostic Laboratories, LLC, priority 2011, dated 2017).

For orientation: IC50 means the midpoint of a concentration-inhibition curve.

For the compound SGASWVQYWWWR [1.21], the solubility result in series [1] is recorded as “insoluble”.
With “7HT AA (AMKTWVDYWLETQA; head-to-tail cyclic; listed as Homo sapiens)”, the “inhibitory activity in cell-based DB-Luc assay” value in series [2] is reported as “did not eliminate the inhibitory activity”. The “inhibition of IL-23 binding to its receptor by modified polypeptides, Competitive ELISA” value (“inhibition of IL-23 binding” below) in series [3] is on record as “did not abrogate the polypeptides' ability”.
SGASWVQYWVQR [Polypeptide no. 1]: the IC50 in series [3] was 6.25 to 12.5 µM.
Regarding `CSCC[C@H](NC(=O)[C@H](C)N)C(=O)N[C@H](C(=O)N[C@@H](Cc1c[nH]c2ccccc12)C(=O)N[C@@H](CCC(N)=O)C(=O)N[C@@H](CC(=O)O)C(=O)N[C@@H](Cc1ccc(O)cc1)C(=O)N[C@@H](Cc1c[nH]c2ccccc12)C(=O)N[C@@H](CC(C)C)C(=O)N[C@@H](Cc1ccc(O)cc1)C(=O)NCC(=O)N[C@@H](CCCNC(=N)N)C(=O)O)[C@@H](C)O` [23.15], the “inhibition of IL-23 binding” value in series [3] was “at least as effective”.
Turning to “WT: IL-23 cytokine with wild type p19 subunit, expressed in 293T cells”, the “stimulation of STAT3 reporter activity” value in series [4] (50,000, 5,000, 500 and 50 ng/ml) is on record as “stimulates the STAT3 activity in a dose-dependent manner”.
AMTWEDWWLYGR [compound 23]: the IC50 in series [3] was < 1.56 µM.
Still for that read-out and setting: in the case of DDWMQYWRQQVR [compound 27] it was ~1.56 µM.
“IL-23: heterodimeric cytokine of p19 and p40 subunits; recombinant from Humanzyme”: in the series on IL-23R deletion proteins [5], the “binding to IL-23R deletion proteins 1-348, 1-318 or 1-250” value is recorded as “detected in the precipitate”. In addition, the “binding to IL-23R deletion protein 1-200” value in the series with IL-23R deletion proteins [6] is on record as “failed to bind”. The “increase of reporter luciferase activity” value in series [4] (50 ng/ml) is “approximately 10 folds”.
For the compound “7 CC (CMKTWVDYWLETQC; disulfide 1-14 (inferred); listed as Homo sapiens)”, in series [3], the “inhibition of IL-23 binding” value is “did not abrogate the polypeptides' ability”.
With SGWWWVQYWVQR [1.20], in series [1], the solubility result is given as “insoluble”.
Still for that read-out and setting: in the case of ASWVQYWVQ [1.4] it was “formed a precipitate”.
As to NWATYWQLRHQT [compound 9], the “inhibitory activity in Competitive ELISA in relation to polypeptide no. 1” value in series [3] (50 μM polypeptide, 30 ng/ml IL-23) is “significant and better inhibitory activity compared to peptide number 1; also recorded: inhibited IL-23 binding more than polypeptide no. 1”. Further, the IC50 in series [3] was ~3 µM.
For the compound SGAWWVQYWVQR [1.18], the solubility result in series [1] is reported as “insoluble”.
SGASWVQFWVQR [1.17]: the solubility entry in series [1] is given as “formed a precipitate”.
